PubChem BioAssay AID1919005 (Molecular Pharmacology Branch, DTP, NCI, 2023)
Blank lines part the entries; values can stand above or below the compound they belong to.

Test system: 855422-203-R-J1-PDC complex spheroid growth
Assay: Anticancer human tumor 855422-203-R-J1-PDC patient-derived bladder carcinoma cell line growth inhibition [AhR]
Conditions: for IC50: curve of first compound; for viability, T/C: stronger effect = lower value
Source text: Multicellular complex tumor spheroid response to aryl hydrocarbon receptor antagonists in combination with a variety of drugs and investigational agents in selected tumor cell lines
The current study was undertaken to assess response to aryl hydrocarbon receptor antagonists in combination with standard-of-care drugs and investigational agents in solid tumor complex spheroid models. Complex spheroids include a stromal component modeled by human endothelial cells (HUVEC) and fibroblasts modeled by human mesenchymal stem cells (MSCs). The concentration ranges selected for each drug and investigational agent were based upon clinically achievable concentrations if the clinical Cmax of the agent was known.
Compounds. The drugs and investigational agents: BAY 2416964 (NSC825713), GNF351 (NSC835774), CH-223191 (NSC835775), CPI-455 (NSC825282), aza-TdCyd (NSC777586), decitabine (NSC127716), belinostat (NSC758774), entinostat (NSC756642), pevonedistat (NSC761192), tazemetostat (NSC777109), talazoparib (NSC765396), olaparib (NSC753686), selinexor (NSC780203), nedisertib (M3814, NSC802822), bortezomib (NSC756655), venetoclax (NSC766270), doxorubicin (NSC123127), elimusertib (BAY189344, NSC800525), ceralasertib (AZD6738, NSC777638), TAK-243 (NSC785004), alisertib (NSC759677), etoposide (NSC141540), topotecan (NSC609699), eribulin (NSC707389), gemcitabine (NSC613327), carboplatin (NSC241240), cisplatin (NSC119875), and SN-38 (NSC673596) were obtained from the National Cancer Institute (NCI) Developmental Therapeutics Program Chemical Repository (32). The FDA-approved anticancer drug set is available from the Developmental Therapeutics Program at https://dtp.cancer.gov/organization/dscb/obtaining/available plates.htm. […] The stock solutions were prepared in dimethyl sulfoxide (DMSO, Sigma-Aldrich, St. Louis, MO, cat. D2650), except for the platinum compounds which were prepared in saline (Quality Biological, Gaithersburg, MD, cat. 114-055-101), at 800-fold the tested concentration and stored at -70 degrees C prior to their use. All drugs and investigational agents were tested over a range starting from a high concentration at or near the clinical Cmax and decreasing in half-log increments. If the clinical Cmax for an agent had not been determined, the highest concentration tested was 10 microM (Table 1).
Cell Culture. All cells were maintained in an incubator at 37 degrees C and 5% CO2 with 95% humidity. The PDC lines were cultured according to standard operating procedures established by the NCI PDMR (https://pdmr.cancer.gov). Briefly, all PDCs were thawed and cultured in Matrigel-coated flasks prepared with a working solution of 1X Ham's F-12 nutrient mix, without supplementation (Invitrogen, Waltham, MA, cat. 11765054), 100 U/mL penicillin-streptomycin (Invitrogen, cat. 15140122), and 2.5% Matrigel (Corning Inc., Corning, NY, cat. 354248) for the first three passages. All PDCs were cultured in complete DMEM/F-12 media containing advanced DMEM/F-12 (Invitrogen, cat. 12634028), 4.9% defined fetal bovine serum, heat inactivated (HyClone Laboratories Inc., Logan, UT, cat. SH30070.03HI), 389 ng/mL hydrocortisone (Sigma-Aldrich, cat. H4001), 9.7 ng/mL human EGF recombinant protein (Invitrogen, cat. PHG0313), 23.4 microg/mL adenine (Sigma-Aldrich, cat. A2786), 97.3 U/mL penicillin-streptomycin (Invitrogen, cat. 15140122), 1.9 mM L-glutamine (Invitrogen, cat. 25030081), and 9.7 microM Y-27632 dihydrochloride (Tocris Bioscience, Bristol, United Kingdom, cat. 1254). The PDCs were cultured in complete DMEM/F12 media without 10 microM Y-27632 dihydrochloride for at least two passages prior to the screen. The established cell lines NCI-H1341 and […] were cultured in DMEM/F-12, HEPES (Invitrogen, cat. 11330032), 5% defined fetal bovine serum (HyClone Laboratories Inc., cat. SH30070.03), ITS premix universal culture supplement [insulin (5 microg/mL), transferrin (5 microg/mL), and selenious acid (5 ng/mL)] […]

[1] = second compound 0.1 µM, first compound 0.0316 µM
[2] = second compound 0.1 µM, first compound 0.1 µM
[3] = second compound 0.1 µM, first compound 0.316 µM
[4] = second compound 0.1 µM, first compound 1 µM
[5] = second compound 0.1 µM, first compound 3.16 µM
[6] = second compound 0.1 µM, first compound 10 µM
[7] = second compound 0.316 µM, first compound 0.0316 µM
[8] = second compound 0.316 µM, first compound 0.1 µM
[9] = second compound 0.316 µM, first compound 0.316 µM
[10] = second compound 0.316 µM, first compound 1 µM
[11] = second compound 0.316 µM, first compound 3.16 µM
[12] = second compound 0.316 µM, first compound 10 µM
[13] = second compound 1 µM, first compound 0.0316 µM
[14] = second compound 1 µM, first compound 0.1 µM
[15] = second compound 1 µM, first compound 0.316 µM
[16] = second compound 1 µM, first compound 1 µM
[17] = second compound 1 µM, first compound 3.16 µM
[18] = second compound 1 µM, first compound 10 µM
[19] = second compound 3.16 µM, first compound 0.0316 µM
[20] = second compound 3.16 µM, first compound 0.1 µM
[21] = second compound 3.16 µM, first compound 0.316 µM
[22] = second compound 3.16 µM, first compound 1 µM
[23] = second compound 3.16 µM, first compound 3.16 µM
[24] = second compound 3.16 µM, first compound 10 µM
[25] = second compound 10 µM, first compound 0.0316 µM
[26] = second compound 10 µM, first compound 0.1 µM
[27] = second compound 10 µM, first compound 0.316 µM
[28] = second compound 10 µM, first compound 1 µM
[29] = second compound 10 µM, first compound 3.16 µM
[30] = second compound 10 µM, first compound 10 µM
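Note: spheroids exposed to agents for seven days before readout.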
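Throughout, for viability, T/C: percent of DMSO vehicle control luminescence viability.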

IC50 (second compound 0.1 µM): > 10 µM | IC50 (second compound 0.316 µM): > 10 µM | IC50 (second compound 1 µM): > 10 µM | IC50 (second compound 3.16 µM): > 10 µM | IC50 (second compound 10 µM): > 10 µM
Structure (SMILES): O=C(c1cc(Cc2n[nH]c(=O)c3ccccc23)ccc1F)N1CCN(C(=O)C2CC2)CC1 + Cc1ccccc1N=Nc1ccc(NC(=O)c2ccnn2C)c(C)c1
viability, T/C [1]: 96.5% | viability, T/C [2]: 102% | viability, T/C [3]: 99.3% | viability, T/C [4]: 95.1% | viability, T/C [5]: 90.9% | viability, T/C [6]: 93.2% | viability, T/C [7]: 102% | viability, T/C [8]: 100% | viability, T/C [9]: 97.8% | viability, T/C [10]: 93.1% | viability, T/C [11]: 94.2% | viability, T/C [12]: 93.1% | viability, T/C [13]: 97.6% | viability, T/C [14]: 102% | viability, T/C [15]: 103% | viability, T/C [16]: 100% | viability, T/C [17]: 101% | viability, T/C [18]: 94.6% | viability, T/C [19]: 90.2% | viability, T/C [20]: 91.7% | viability, T/C [21]: 92.2% | viability, T/C [22]: 94.3% | viability, T/C [23]: 93.3% | viability, T/C [24]: 84.2% | viability, T/C [25]: 80.9% | viability, T/C [26]: 79.3% | viability, T/C [27]: 76.9% | viability, T/C [28]: 79.7% | viability, T/C [29]: 74% | viability, T/C [30]: 63.6%

IC50 (second compound 0.1 µM): 0.409 µM | IC50 (second compound 0.316 µM): 0.279 µM | IC50 (second compound 1 µM): 0.326 µM | IC50 (second compound 3.16 µM): 0.274 µM | IC50 (second compound 10 µM): 0.26 µM
Structure (SMILES): O=C(C=Cn1cnc(-c2cc(C(F)(F)F)cc(C(F)(F)F)c2)n1)NNc1cnccn1 + CC(CO)NC(=O)c1cc(-c2ccc(Cl)cc2)nn(-c2cnn(C)c2)c1=O
viability, T/C (second compound 0.1 µM, first compound 0.00949 µM): 106% | viability, T/C (second compound 0.1 µM, first compound 0.03 µM): 124% | viability, T/C (second compound 0.1 µM, first compound 0.0949 µM): 141% | viability, T/C (second compound 0.1 µM, first compound 0.3 µM): 55.2% | viability, T/C (second compound 0.1 µM, first compound 0.949 µM): 40.1% | viability, T/C (second compound 0.1 µM, first compound 3 µM): 32.1% | viability, T/C (second compound 0.316 µM, first compound 0.00949 µM): 112% | viability, T/C (second compound 0.316 µM, first compound 0.03 µM): 125% | viability, T/C (second compound 0.316 µM, first compound 0.0949 µM): 149% | viability, T/C (second compound 0.316 µM, first compound 0.3 µM): 44.6% | viability, T/C (second compound 0.316 µM, first compound 0.949 µM): 36.8% | viability, T/C (second compound 0.316 µM, first compound 3 µM): 33% | viability, T/C (second compound 1 µM, first compound 0.00949 µM): 121% | viability, T/C (second compound 1 µM, first compound 0.03 µM): 136% | viability, T/C (second compound 1 µM, first compound 0.0949 µM): 159% | viability, T/C (second compound 1 µM, first compound 0.3 µM): 51.1% | viability, T/C (second compound 1 µM, first compound 0.949 µM): 37.8% | viability, T/C (second compound 1 µM, first compound 3 µM): 31.1% | viability, T/C (second compound 3.16 µM, first compound 0.00949 µM): 108% | viability, T/C (second compound 3.16 µM, first compound 0.03 µM): 123% | viability, T/C (second compound 3.16 µM, first compound 0.0949 µM): 152% | viability, T/C (second compound 3.16 µM, first compound 0.3 µM): 43.4% | viability, T/C (second compound 3.16 µM, first compound 0.949 µM): 41.1% | viability, T/C (second compound 3.16 µM, first compound 3 µM): 28.6% | viability, T/C (second compound 10 µM, first compound 0.00949 µM): 100% | viability, T/C (second compound 10 µM, first compound 0.03 µM): 134% | viability, T/C (second compound 10 µM, first compound 0.0949 µM): 144% | viability, T/C (second compound 10 µM, first compound 0.3 µM): 39.2% | viability, T/C (second compound 10 µM, first compound 0.949 µM): 33.6% | viability, T/C (second compound 10 µM, first compound 3 µM): 31.1%

IC50 (second compound 0.1 µM): 6.82 µM | IC50 (second compound 0.316 µM): 6.89 µM | IC50 (second compound 1 µM): 7.01 µM | IC50 (second compound 3.16 µM): 6.66 µM | IC50 (second compound 10 µM): 4.83 µM
Structure (SMILES): CC1(C)CCC(CN2CCN(c3ccc(C(=O)NS(=O)(=O)c4ccc(NCC5CCOCC5)c([N+](=O)[O-])c4)c(Oc4cnc5[nH]ccc5c4)c3)CC2)=C(c2ccc(Cl)cc2)C1 + Cc1ccccc1N=Nc1ccc(NC(=O)c2ccnn2C)c(C)c1
viability, T/C [1]: 102% | viability, T/C [2]: 114% | viability, T/C [3]: 101% | viability, T/C [4]: 107% | viability, T/C [5]: 110% | viability, T/C [6]: 21.8% | viability, T/C [7]: 105% | viability, T/C [8]: 106% | viability, T/C [9]: 102% | viability, T/C [10]: 114% | viability, T/C [11]: 106% | viability, T/C [12]: 23.1% | viability, T/C [13]: 108% | viability, T/C [14]: 116% | viability, T/C [15]: 102% | viability, T/C [16]: 106% | viability, T/C [17]: 116% | viability, T/C [18]: 23.4% | viability, T/C [19]: 95.8% | viability, T/C [20]: 102% | viability, T/C [21]: 105% | viability, T/C [22]: 105% | viability, T/C [23]: 98.2% | viability, T/C [24]: 23.6% | viability, T/C [25]: 94.1% | viability, T/C [26]: 83.5% | viability, T/C [27]: 89% | viability, T/C [28]: 85.6% | viability, T/C [29]: 62.9% | viability, T/C [30]: 27.7%
